The values that follow come from patent US20230144023A1, “USE OF BUTYLPHTHALIDE AND DERIVATIVE THEREOF” (CSPC NBP PHARMACEUTICAL CO., LTD, priority 2020, published 2023).

The structures appear in SMILES notation.

A word on the inhibition: it is the relative decrease from the control value, in per cent.

In series [1] the test system is A549. In words: In vitro tumor cell proliferation, MTT (Example 7). Particulars: Homo sapiens, A549, 72 h.
Description: This experiment includes a monotherapy group of Bortezomib, a combined therapy group (Bortezomib/NBP), and a monotherapy group of NBP. Different drug concentration gradients were set for each group.
Monotherapy group of Bortezomib: (1) MM.1S, Jeko-1, and HT29 cells: Bortezomib was 1.5× serially diluted from an initial concentration of 20 nM to 8 concentrations: 20, 13.33, 8.89, 5.93, 3.95, 2.63, 1.76, and 1.17 nM, respectively; (2) A549 cells: Bortezomib was 2×serially diluted from an initial concentration of 200 nM to 8 concentrations: 200, 100, 50, 25, 12.5, 6.25, 3.13, and 1.56 nM, respectively; and (3) DU145 cells: Bortezomib was 2× serially diluted from an initial concentration of 100 nM to 8 concentrations: 100, 50, 25, 12.5, 6.25, 3.13, 1.56, and 0.78 nM, respectively.
A certain number of conventionally cultured cells in logarithmic growth phase were inoculated in a 96-well plate with 100 μL per well. […] For adherent cells HT29, A549, and DU145, the above drugs were added 24 h after adherence. 3 replicate wells were set for each concentration of each drug, and blank wells (only culture medium was present, and no tumor cells were inoculated) and normal wells (a culture medium inoculated with tumor cells, drug concentration was 0) were set. The drugs functioned for 72 h, then MTT working solution (5 mg/mL) was added at 20 μL per well; after functioning at 37° C. for 4 h, the supernatant was removed, 150 μL of DMSO (analytically pure) was added; the mixture was fully mixed using a microplate oscillator, the plate was wiped clean, and the optical density (OD) at 550 nm was measured using a microplate reader.
The cell growth inhibition rate was computed using the following equation:
Inhibition rate (%)=(OD valuenormal well−OD valueadministration well)/(OD valuenormal well−OD valueblank well)×100%
Based on the inhibition rate of each concentration, the median inhibitory concentration IC50 of the drug was computed using SPSS19.0.
For series [2], the system named is paclitaxel (albumin bound) chemotherapy-induced peripheral neuropathy. Nature of the series: Paclitaxel (albumin bound) chemotherapy-induced peripheral neuropathy in rats, butylphthalide intragastric administration (Example 2). The format is in vivo, SD (Sprague Dawley) rats. The following applies: compared with the model group. As for the experimental part:
The model group was given vegetable oil at the same frequency and with the same administration method as NBP. The normal group was given normal saline at the same frequency and with the same administration method as ab-PTX, and was given vegetable oil at the same frequency and with the same administration method as NBP. […] (2) Thermal pain threshold: measurements were performed on days −1, 7, and 14. Method: IITC Life Science Electronic Von Frey Anesthesio meter was used and the intensity of the light source was adjusted to obtain a baseline of thermal pain threshold of about 3-6 s. […] The rats were placed in a plastic compartment on a glass plate, to make the planta centers of the rats be exposed to the light source. […] (3) Mechanical stimulus pain threshold: measurements were performed on days 0, 6, and 13. Method: the rats were placed in a plastic compartment on a wire mesh, left to stand still for 15 min, stimulated using a stimulation probe with a diameter of 0.4 mm of the IITC Life Science Electronic Von Frey Anesthesio meter at the planta centers of the rats by gradually increasing the force until reflexive withdrawal of the rats.

In a further series the test system is JIMT-1 xenograft tumor. Nature of the series: Influence of NBP on antitumor efficacy of ab-PTX against JIMT-1 xenograft tumor (Example 4). The class given is in vivo, Nu/Nu mice. Here is the method: After in vitro resuscitation and passage of JIMT-1 cells to a sufficient amount, the cells were counted by a microscope, and diluted with a serum-free medium to adjust the cell count to about 1×10^8 cells/mL. The cell suspension was kept in an ice-water bath. […] Monotherapy group of ab-PTX: intravenous injection of ab-PTX at 15 mg/kg once every week, qw (on days 0, 7, 14, 21, and 28). Administration period: 28 days. Administration volume: 10 mL/kg. Monotherapy group of NBP: […] The administration volume was 10 mL/kg. […] The administration period was 28 days. The administration volume was 10 mL/kg. The solvent group was given normal saline at the same frequency and with the same method as ab-PTX, and was given vegetable oil at the same frequency and with the same method as NBP. […] Animals were weighed at set time once per day after the commencement of administration. At the end of the experiment, after the animals were euthanized by CO2 asphyxiation, the tumors were excised and weighed.

Series [3] relates to MM.1S, Jeko-1, HT29, A549, DU145. In words: In vitro proliferation of 5 cell strains, summary statements (Example 7). The class given is cell-based, Human. Particulars: monotherapy of NBP; 5 cell strains. Here is the method:
Different drug concentration gradients were set for each group.
(§1) Monotherapy group of NBP: NBP was 2× serially diluted from an initial concentration of 480 μM to 8 concentrations: 480, 240, 120, 60, 30, 15, 7.5, and 3.75 μM, respectively.
(§2) The action time of the drug was 72 h.
3 replicate wells were set for each concentration of each drug, and blank wells (only culture medium was present, and no tumor cells were inoculated) and normal wells (a culture medium inoculated with tumor cells, drug concentration was 0) were set.

Series [4] deals with MDA-MB-231, JIMT-1, SK-OV-3, HT29, A549, A375. Nature of the series: In vitro proliferation of 6 tumor cell strains, summary statements (Example 5). Particulars: NBP alone; 6 cell strains. The format is cell-based, Human. As for the experimental part: (§3) This experiment includes a monotherapy group of ab-PTX, a combined therapy group (ab-PTX/NBP), and an NBP group. Different drug concentration gradients were set for each group.
(§4) ab-PTX/NBP group: the final concentration of NBP was 30 μM, and the concentration gradient of ab-PTX was the same as that of the monotherapy group.
as §1, §2
(§5) 24 h after adherence, 100 μL of the culture solution containing different concentration gradients of ab-PTX was added to each well of the monotherapy group of ab-PTX; 100 μL of the culture solution containing different concentration gradients of ab-PTX and 30 μM NBP was added to each well of the combined therapy group of ab-PTX/NBP; 100 μL of the culture solution containing different concentration gradients of NBP was added to each well of the monotherapy group of NBP; 3 repeated wells were provided for each concentration of each drug, and the blank wells (only culture medium was present) and the normal wells (drug concentration was 0) were provided.
(§6) The experiment was repeated three times, and the IC50 value was expressed as the mean±SD of the results of the 3 experiments.

Series [5] relates to paclitaxel (albumin bound) chemotherapy-induced peripheral neuropathy. In words: Paclitaxel (albumin bound) chemotherapy-induced peripheral neuropathy in rats, butylphthalide intraperitoneal injection (Example 1). The class given is in vivo, SD (Sprague Dawley) rats. Particulars: NBP 1.5, 5 and 15 mg/kg bid i.p., compared with the model group. Here is the method:
The normal group was administered with 0.9% normal saline (0.9% INJ NS) at the same frequency. The animal grouping, the administration method, and the doses are detailed in Table 3. Based on the thermal pain threshold baselines and the body weights of the rats, the rats with the baseline values ranging from 3 to 6 s were selected, and were equally grouped in accordance with the above Table 3. […] (2) Thermal pain threshold: IITC Life Science Electronic Von Frey Anesthesio meter was used and the intensity of the light source was adjusted to obtain a baseline of thermal pain threshold of about 3-6 s. […] The rats were placed in a plastic compartment on a glass plate, to make the planta centers of the rats be exposed to the light source.

The subject of another series is A375. In words: In vitro tumor cell proliferation, MTT (Example 5). The class given is cell-based. The following applies: Homo sapiens, A-375, 30 μM NBP alone, 72 h, read-out: Inhibition rate. As for the experimental part: as §3, §4, §1, §2, §5, §6
For series [6], the system named is A549. Nature of the series: In vitro tumor cell proliferation, MTT (Example 5). The class given is cell-based. The following applies: Homo sapiens, 30 μM NBP alone, 72 h, read-out: Inhibition rate. Here is the method:
as §3, §4, §1, §2, §5, §6

In the next series the test system is MDA-MB-231. Nature of the series: In vitro tumor cell proliferation, MTT (Example 5). The class given is cell-based. Particulars: Homo sapiens, 30 μM NBP alone, 72 h, read-out: Inhibition rate. As for the experimental part:
as §3, §4, §1, §2, §5, §6

The test system of the next series is JIMT-1. Nature of the series: In vitro tumor cell proliferation, MTT (Example 5). The format is cell-based. Particulars: Homo sapiens, 30 μM NBP alone, 72 h, read-out: Inhibition rate. Here is the method: as §3, §4, §1, §2, §5, §6
A further series concerns HT29. Nature of the series: In vitro tumor cell proliferation, MTT (Example 5). The format is cell-based. Particulars: Homo sapiens, HT-29, 30 μM NBP alone, 72 h, read-out: Inhibition rate. Here is the method:
as §3, §4, §1, §2, §5, §6

In the next series the test system is SK-OV-3. In words: In vitro tumor cell proliferation, MTT (Example 5). Particulars: Homo sapiens, 30 μM NBP alone, 72 h, read-out: Inhibition rate. The class given is cell-based. Here is the method:
as §3, §4, §1, §2, §5, §6

Take `CCCCC1OC(=O)c2ccccc21` (stereo not drawn) [NBP, 3-n-butylphthalide]: the inhibition at 30 µM with A549 [1] (read-out: Inhibition rate, First dose) was -11.1%; with A549 [1] (read-out: Inhibition rate, Mean ± SD), 1.11 ± 10.8%; with A549 [1] (read-out: Inhibition rate, Second dose) it was 9.68%; with A549 [1] (read-out: Inhibition rate, Third dose), 4.74%; in the series with A375, 10.9 ± 0.57%; with A549 [6] it was 5.12 ± 7.36%. Further, the inhibition at 30 µM with MDA-MB-231 stood at 3.43 ± 3.95%; with JIMT-1 it was 7.39 ± 13.2%; in the series on HT29, 10.1 ± 7.94%; with SK-OV-3, 12.4 ± 7.41%. In addition, the “body weights of the rats” value is “not obviously changed” in [2] (NBP 3, 10 and 30 mg/kg bid, duloxetine hydrochloride 15 mg/kg qd, intragastric, throughout administration); “not significantly changed” in [5] (D4-16). Moreover, the mechanical pain threshold entry in [2] (day 6, NBP 30 mg/kg bid p.o., P<0.05) is “significantly decreased”; in series [2] (day 13, NBP 3 mg/kg bid p.o.), “had a decreasing trend, but did not have statistical difference”; in series [2] (day 13, NBP 10 and 30 mg/kg bid, duloxetine hydrochloride 15 mg/kg qd, P<0.05), “significantly decreased”. Also, the thermal pain threshold entry is given as “significantly decreased” in series [2] (day 7, NBP 30 mg/kg bid p.o., P<0.05); “significantly decreased” in [2] (day 14, NBP 3, 10 and 30 mg/kg bid, duloxetine hydrochloride 15 mg/kg qd, P<0.05). Also, the “Inhibition rate (tumor weight)” value in the series with JIMT-1 xenograft tumor (NBP 60 mg/kg bid gavage alone) was determined as 4.0%. This molecule also had a Tumor weight in the series with JIMT-1 xenograft tumor (NBP 60 mg/kg bid gavage alone, mean ± SD, n=8) of 0.9570 ± 0.2529 g. Also, the tumor growth result with JIMT-1 xenograft tumor (ab-PTX 15 mg/kg qw i.v., NBP 60 mg/kg bid gavage, compared with the solvent group) was “not obviously affected”. The “body weights of the mice” value in the series on JIMT-1 xenograft tumor (ab-PTX 15 mg/kg qw i.v., NBP 6, 20, 60 mg/kg bid gavage, 28 days) is “no significant difference”. Also, the “inhibitory effect on in vitro proliferation” value is recorded as “does not have obvious inhibitory effect” in series [3] and “did not have obvious inhibitory effect” in [4]. Moreover, the “thermal pain threshold (increase in model rats)” value in [5] (D7-13, P<0.05 or P<0.01) is recorded as “significantly decreased”.
